The source of these data is patent US6376501B1, “Type 2 helper T cell-selective immune response suppressors” (Japan Energy Corporation, priority 2000, dated 2002).

The test system of data set [1] is BALB/c mice. The experiment in a line: Inhibitory effect on eosinophilic infiltration into the abdominal cavity of OVA-immunized mice. The data set is classed as in vivo. Conditions: for Ratio of Infiltrating Eosinophiles: cells collected two days after; for Inhibition: eosinophile ratio vs control. The protocol:
Eight week-old male BALB/c mice were immunized with 1.6 mg of aluminium hydroxide gel (200 μl) adsorbing 100 μg of OVA by subcutaneous administration in the back. After 7 days, the mice received a booster injection of the same composition. Seven days after the booster administration, 10 μg of OVA in 200 μl of physiological saline was administered to the mice intraperitoneally. Two days after the intraperitoneal administration, abdominal cavity-infiltrating cells were collected with physiological saline. The total cell count and the eosinophile count in the collected cells were calculated by staining with Türk's solution and Hinkerman's solution, respectively. The test compound was administered orally 2 hours before the OVA intraperitoneal administration.

Data set [2] concerns interleukin-4 (IL-4). The data set can be described thus: IL-4 production from OVA-sensitized mouse spleen cells induced by antigen stimulation (ELISA). The data set is classed as cell-based. The settings on record: OVA-stimulated sensitized spleen cells, 3 days culture supernatant. The protocol: (§1) 1) Preparation of Sensitized Mouse Spleen Cells
(§2) Seven week-old male BALB/c mice were immunized with 4 mg of aluminium hydroxide gel (100 μl) adsorbing 10 μg of ovalbumin (OVA) by intraperitoneal administration. After 14 days, the mice received a booster injection of the same composition. Seven days after the booster administration, the spleen was removed and suspended in RPMI-1640 medium containing inactivated bovine fetal serum (10% v/v), 2-mercaptoethanol (50 μM), penicillin G (100 U/ml) and streptomycin (100 μg/ml) to prepare a cell suspension.
(§3) 2) Cytokine Production Induced by Antigen Stimulation
(§4) To the spleen cell suspension (5×10^6 cells/200 μl/well), 1/1000 volume of dimethyl sulfoxide solution dissolving OVA (0.5 mg/ml) and a test compound at a specific concentration was added. Then, the cells were cultured at 37° C. under 5% CO2. After 3 days, cytokines in the culture supernatant were determined by ELISA. Specifically, as a Th1 type cytokine, interferon-γ, (IFN-γ) was determined using Mouse IFN-γ ELISA Kit (Amersham). As Th2 type cytokines, interleukin-4 (IL-4) and interleukin-5 (IL-5) were determined with Mouse IL-4 ELISA Kit (Amersham) and Mouse IL-5 ELISA minikit (Endogen), respectively.
On the technique in general: ELISA stands for enzyme-linked immunosorbent assay.

In data set [3] the test system is interferon-γ (IFN-γ). The data set can be described thus: IFN-γ production from OVA-sensitized mouse spleen cells induced by antigen stimulation (ELISA). The data set is classed as cell-based. The settings on record: OVA-stimulated sensitized spleen cells, 3 days culture supernatant. The protocol:
as §1, §2, §3, §4

The subject of data set [4] is interleukin-5 (IL-5). The experiment in a line: IL-5 production from OVA-sensitized mouse spleen cells induced by antigen stimulation (ELISA). The settings on record: OVA-stimulated sensitized spleen cells, 3 days culture supernatant. The data set is classed as cell-based. The protocol:
as §1, §2, §3, §4

Data set [5] concerns BALB/c mice. The data set can be described thus: Mouse FITC-induced contact dermatitis model (auricule swelling), ointment. The data set is classed as in vivo. Conditions: 10 μl on left auricule 2 hr before induction, 24 hr after induction. The protocol: As a control, Imiquimode (R-837; 4-amino-1-isobutyl-1H-imidazo[4,5-c]quinoline) disclosed in EP 145,340 A was used for comparison. Further, a steroid-type drug Rinderon™ ointment (Shionogi & Co.; 0.12% betamethasone valerate ointment) was used for reference.
The test compound was dissolved in an ointment base (PEG400:PEG4000=7:3) heated to about 80° C. to give a concentration of 1 mg/ml or 10 mg/ml, and then cooled to solid at room temperature to thereby prepare 0.1 or 1% macrogol ointment. Imiquimode (R-837), the control, was also formulated into 0.1 and 1% macrogol ointments.
Seven week-old male BALB/c mice were sensitized by applying 0.2 ml of 0.5% FITC in acetone/dibutyl phthalate (1:1) to the abdomen sheared in advance. Seven days after the sensitization, inflammation was induced by applying 10 μl of 0.5% FITC in acetone/dibutyl phthalate (1:1) to each side of the left auricule (total 20 μl). Before the induction and 24 hr after the induction, the thickness of the auricule was measured with a micrometer. The difference between the two values was taken as the swelling degree. The macrogoal ointment containing the test compound and Rinderon™ ointment (0.12% betamethasonevalerate) were applied to each side of the left auricule in an amount of 5 μl (total 10 μl) 2 hr before the induction. Mice in the placebo group were treated with the macrogol ointment base (PEG400:PEG4000=7:3).
The inflammation inhibitory effect of the ointment of the invention was calculated as an inhibition ratio relative to the swelling degree in the placebo group which was taken as 100%. For example, the inhibition ratios in the groups treated with ointments containing 0.1% and 1% of the compound of Example 59, i.e. 2-butyl-9-(p-fluorobenzyl)-8-hydroxyadenine were 67% and 33%, respectively.

[6] abbreviates: 3 mg/kg orally 2 hours before OVA i.p.
The mark [7] stands for this setting: 30 mg/kg orally 2 hours before OVA i.p.

In general, Inhibition refers to the percentage by which the read-out fell short of the control. `C[C@@H]1C[C@H]2[C@@H]3CCC4=CC(=O)C=C[C@]4(C)[C@@]3(F)[C@@H](O)C[C@]2(C)[C@@]1(O)C(=O)CO` [Dexamethasone, reference compound]: in data set [1] (setting [6]), the “Ratio of Infiltrating Eosinophiles” value was 10.27% and the Inhibition is on record as 18.9%.

As usually defined, the melting point is the temperature, or range, at which the solid turns liquid. `Nc1ncnc2c1nc(O)n2Cc1ccccc1` [Example 1, 9-Benzyl-8-Hydroxyadenine] came in with a melting point of 278 to 280 °C.

As to `CCCCn1c(O)nc2c(N)ncnc21` [Example 3, 9-Butyl-8-Hydroxyadenine], the melting point lay within 222 to 224 °C.

Regarding `Nc1ncnc2c1nc(O)n2Cc1ccc(F)cc1` [Example 4, 9-(4-Fluorobenzyl)-8-Hydroxyadenine], the melting point lay within 270 to 272 °C.

`CC(C)(C)OC(=O)Oc1nc2c(N)ncnc2n1Cc1ccccc1` [Example 10, 9-Benzyl-8-tert-Butyloxycarbonyloxyadenine] gave a melting point of 287 to 289 °C.

`CC(=O)Oc1nc2c(N)ncnc2n1Cc1ccccc1` [Example 11, 9-Benzyl-8-Acetoxyadenine] yielded a melting point of 189 to 191 °C.

For `Nc1ncnc2c1nc(OC(=O)c1ccccc1)n2Cc1ccccc1` [Example 12, 9-Benzyl-8-Benzoyloxyadenine], the melting point lay in the range of 227 to 229 °C.

Compound `CCCCCCCC(=O)Oc1nc2c(N)ncnc2n1Cc1ccccc1` [Example 15, 9-Benzyl-8-Octanoyloxyadenine] showed a melting point of 248 to 250 °C.

Regarding `Cc1nc(N)c2nc(O)n(Cc3ccccc3)c2n1` [Example 17, 9-Benzyl-8-Hydroxy-2-Methyladenine], in data set [1] (setting [7]), the “Ratio of Infiltrating Eosinophiles” value is reported as 4.70% and the Inhibition was found to be 62.9%.

For `Cc1nc(N)c2nc(O)n(Cc3cccc(Cl)c3)c2n1` [Example 18, 9-(m-Chlorobenzyl)-8-Hydroxy-2-Methyladenine], the IL-4 in data set [2] (test compound 0.1 μM) is 254 pg/mL; in data set [2] (test compound 1 μM), below 7.8 pg/mL; in data set [2] (test compound 10 μM), below 7.8 pg/mL. Besides, the IFN-γ in data set [3] (test compound 0.1 μM) turned out to be 26 ng/mL; in data set [3] (test compound 1 μM) it was 63 ng/mL; in data set [3] (test compound 10 μM), 181 ng/mL. Besides, the IL-5 in data set [4] (test compound 0.1 μM) was 4,150 pg/ml; in data set [4] (test compound 1 μM), 2,321 pg/ml; in data set [4] (test compound 10 μM) it was 710 pg/mL.

Turning to `Cc1nc(N)c2nc(S)n(Cc3ccccc3)c2n1` [Example 19, 9-Benzyl-8-Mercapto-2-Methyladenine], the IL-4 was 296 pg/mL in data set [2] (test compound 0.1 μM), 29 pg/mL in data set [2] (test compound 1 μM) and below 7.8 pg/mL in data set [2] (test compound 10 μM). The IFN-γ in data set [3] (test compound 0.1 μM) is 16 ng/mL; in data set [3] (test compound 1 μM), 50 ng/mL; in data set [3] (test compound 10 μM) it was 139 ng/mL. The figures for the IL-5 in data set [4] (test compound 0.1 μM), in data set [4] (test compound 1 μM) and in data set [4] (test compound 10 μM) were 4,482 pg/ml, 1,782 pg/ml and 643 pg/mL, respectively.

As to `CCCCCc1nc(N)c2nc(O)n(Cc3ccccc3)c2n1` [Example 20, 9-Benzyl-8-Hydroxy-2-Pentyladenine], the IL-4 was 208 pg/mL in data set [2] (test compound 0.01 μM), 20 pg/mL in data set [2] (test compound 0.1 μM), below 7.8 pg/mL in data set [2] (test compound 1 μM) and below 7.8 pg/mL in data set [2] (test compound 10 μM). In addition, the IFN-γ in data set [3] (test compound 0.01 μM) is 25 ng/mL; in data set [3] (test compound 0.1 μM), 135 ng/mL; in data set [3] (test compound 1 μM) it was 193 ng/mL; in data set [3] (test compound 10 μM) it was 219 ng/mL. The IL-5 in data set [4] (test compound 0.01 μM) is 3,792 pg/ml; in data set [4] (test compound 0.1 μM), 1,667 pg/ml; in data set [4] (test compound 1 μM), 670 pg/mL; in data set [4] (test compound 10 μM), 524 pg/mL. Further, the “Ratio of Infiltrating Eosinophiles” value in data set [1] (setting [7]) turned out to be 6.94%. Moreover, the Inhibition in data set [1] (setting [7]) was 46.2%.

In the case of `Nc1nc(C2CCCCC2)nc2c1nc(O)n2Cc1ccccc1` [Example 21, 9-Benzyl-2-Cyclohexyl-8-Hydroxyadenine], the figures for the IL-4 in data set [2] (test compound 0.1 μM), in data set [2] (test compound 1 μM) and in data set [2] (test compound 10 μM) were 192 pg/mL, 11 pg/mL and below 7.8 pg/mL, respectively. The IFN-γ in data set [3] (test compound 0.1 μM) worked out at 28 ng/mL; in data set [3] (test compound 1 μM), 158 ng/mL; in data set [3] (test compound 10 μM), 170 ng/mL. In addition, the IL-5 is 4,103 pg/ml in data set [4] (test compound 0.1 μM), 1,291 pg/ml in data set [4] (test compound 1 μM) and 715 pg/mL in data set [4] (test compound 10 μM).

In the case of `Nc1nc(Cc2ccccc2)nc2c1nc(O)n2Cc1ccccc1` [Example 24, 2,9-Dibenzyl-8-Hydroxyadenine], the IL-4 in data set [2] (test compound 0.1 μM) was 195 pg/mL; in data set [2] (test compound 1 μM), below 7.8 pg/mL; in data set [2] (test compound 10 μM), below 7.8 pg/mL. For the same compound, the IFN-γ is 44 ng/mL in data set [3] (test compound 0.1 μM), 199 ng/mL in data set [3] (test compound 1 μM) and 244 ng/mL in data set [3] (test compound 10 μM). The IL-5 in data set [4] (test compound 0.1 μM) was 3,670 pg/ml; in data set [4] (test compound 1 μM), 1,130 pg/ml; in data set [4] (test compound 10 μM), 345 pg/mL.

`CC(C)c1nc(N)c2nc(O)n(Cc3ccccc3)c2n1` [Example 45, 9-Benzyl-8-Hydroxy-2-Isopropyladenine]: the figures for the IL-4 in data set [2] (test compound 0.1 μM), in data set [2] (test compound 1 μM) and in data set [2] (test compound 10 μM) were 86 pg/mL, below 7.8 pg/mL and below 7.8 pg/mL, respectively. Moreover, the IFN-γ was found to be 46 ng/mL in data set [3] (test compound 0.1 μM), 161 ng/mL in data set [3] (test compound 1 μM) and 187 ng/mL in data set [3] (test compound 10 μM). Further, the figures for the IL-5 in data set [4] (test compound 0.1 μM), in data set [4] (test compound 1 μM) and in data set [4] (test compound 10 μM) were 2,881 pg/ml, 699 pg/mL and 563 pg/mL, respectively.

For the compound `CCCCc1nc(N)c2nc(O)n(Cc3ccc(F)cc3)c2n1` [Example 59, 2-Butyl-9-(p-Fluorobenzyl)-8-Hydroxyadenine], the “inhibition ratio relative to the swelling degree in the placebo group” value in data set [5] (0.1% macrogol ointment) is given as 67%; in data set [5] (1% macrogol ointment), 33%.

As for `CC(C)Cn1cnc2c(N)nc3ccccc3c21` [Example R-837, 4-amino-1-isobutyl-1H-imidazo[4,5-c]quinoline, reference compound], the figures for the “inhibition ratio relative to the swelling degree in the placebo group” value in data set [5] (0.1% macrogol ointment) and in data set [5] (1% macrogol ointment) were 50% and 67%, respectively.
